Two compounds from patent publication US12055539B2, “HDAC1/2 activator for promoting and/or accelerating myelination and/or remyelination” (UNIVERSITE DE FRIBOURG, priority 2017, dated 2024) can be followed below.

“Also recorded” adds a separate entry of the source.

Experiment [1] relates to HDAC1/2. Nature of the experiment: Acetyl-lysine immunoprecipitation and LC-MS/MS of sciatic nerves after crush lesion. It is filed as in vivo, mouse. The conditions noted are these: 10 mg/kg in pelvic cavity after sciatic nerve crush, nerves collected 24 h later, compared to vehicle.
Experimental: Sciatic nerve crush lesions were carried out in adult mice (3-4 month old) with the following procedure: Isoflurane (3% for induction, 1.5-2% for narcosis during operation) was used for anesthesia. For analgesia, 0.1 mg/kg buprenorphine (Temgesic; Essex Chemie) was administered by i.p. injection 1 h before lesion and 12 hours after the operation. An incision was made at the height of the hip and the sciatic nerve was exposed on one side. The nerve was crushed (5×10 sec with crush forceps: Ref FST 00632-11) and the wound was closed using Histoacryl Tissue Glue (BBraun). After the operation, mice were wrapped in paper towels and placed on a warming pad until recovery from anesthesia.
For immunoprecipitation (IP), the injured sciatic nerve was collected from the lesion site to around 12 mm distal to the lesion site (region where the nerve splits into the three branches of tibial, sural and common peroneal nerves). After perineurium removal, sciatic nerves were frozen in liquid nitrogen, pulverized with a chilled mortar and pestle, lysed in radiolP assay (RIPA) buffer (10 mM Tris/HCl, pH 7.4, 150 mM NaCl, 50 mM NaF, 100 mM NaVO4, 1 mM EDTA, 0.5% wt/vol sodium deoxycholate, and 0.5% Nonidet P-40) for 15 min on ice, and centrifuged to pellet debris. Supernatants were collected and pre-cleared for 1 h with 30 gl protein A/G PLUS agarose beads (Santa Cruz Biotechnology). […]
In experiment [2] the test system is HDAC1/2. Nature of the experiment: Subcellular fractionation, IP and Western blot in de-differentiated rat Schwann cells. The format is cell-based. As for the experimental part: Purified primary rat Schwann cell cultures were obtained as described (ref. 5). Rat Schwann cells were then grown in proliferation medium: DMEM containing 10% Fetal calf serum (FCS, Gibco), 1:500 penicillin/streptomycin (Invitrogen), 4 μg/m1 crude GGF (bovine pituitary extract, Bioconcept), and 2 μM forskolin (Sigma), at 37° C. and 5% CO2/95% air. Schwann cell de-differentiation culture protocol was previously described (ref. 6). Briefly, Schwann cells were first growth-arrested in defined medium (DM, ref. 5) for 8 to 15 h, then 1 mM dbcAMP (Sigma) was added to induce differentiation. Cells were incubated in this medium for another 3 days. The medium was then changed to DM only without dbcAMP, and incubated in this medium for 3 days (differentiation mimicking adult Schwann cell stage). To induce de-differentiation, cells were then changed to proliferation medium and incubated in this medium for 3 days.
Two 15-cm culture plates of confluent de-differentiated rat Schwann cells were used per IP. Cells were either treated with 0.6 μM Mocetinostat (HDAC1/2 inhibitor) or its vehicle for 3 days in de-differentiation medium. Cells were washed with PBS and submitted to subcellular fractionation to separate the nuclear from the cytoplasmic fractions. IPs were then carried out on each fraction nuclear and cytoplasmic, as described above. Immunoprecipitating antibodies: 2.5 μg of eEF1A1 (rabbit, Abcam, cat. # ab157455), Sox10 (rabbit, DCS Innovative Diagnostik-Systeme, cat. # 51058C01) or GFP (rabbit, Abcam, cat. # ab290) antibodies were used per IP. Rabbit anti-GFP antibody was used as negative control IP. Acetylation of eEF1A1 and co-immunoprecipitation of acetylated eEF1A with Sox10 were detected using EEF1A-pan (Acetyl-Lys41) primary antibody (rabbit, Assay Biotech, 1:1000, cat. # D12106). Co-immunoprecipitation of HDAC2 with eEF1A1 was detected using an HDAC2 antibody (mouse, Sigma, 1:1000, cat. # H2663). Light chain-specific goat anti-rabbit-HRP or anti-mouse-HRP secondary antibodies (Jackson ImmunoResearch) were used. Detection was done with Immobilon Western Chemiluminescent HRP Substrate (Millipore). Inputs of the IPs were assayed on lysates used for IPs. GAPDH (mouse, Gene Tex, 1:5000, cat. # GTX28245) and LaminA/C (mouse, Sigma, 1:2000, cat. # SAB4200236) antibodies were used to evaluate the efficiency of cytoplasmic and nuclear fractionation.

The test system of experiment [3] is HDAC1/2. The experiment can be described thus: Immunofluorescence of spinal cord after intrathecal HDAC1/2 inhibitor. It is filed as in vivo, mouse. The conditions noted are these: single intrathecal injection 10 mg/kg, spinal cord collected after 24 h, vs vehicle. As for the experimental part:
For immuno fluorescence, adult mice were treated with a single intratechal injection of 10 mg/kg Mocetinostat (HDAC1/2 inhibitor) or its vehicle and their spinal cord was collected 24 h after injection. Mice were killed and perfused with 4% PFA and their spinal cord was processed as described above in Example 8. Primary antibody: EEF1A-pan (Acetyl-Lys41) antibody (rabbit, Assay Biotech, 1:1000, cat. # D12106), CC1 (mouse, 1:200, Calbiochem/Millipore, cat. # OP80).

In experiment [4] the target is T1, HDAC2 (Mus musculus, UniProt P70288).
T1 construct: from tissue; host or cells: mouse sciatic nerve (adult after crush; P4 control and Schwann-cell HDAC1/2 dKO pups)
T1 sequence (P70288 whole entry): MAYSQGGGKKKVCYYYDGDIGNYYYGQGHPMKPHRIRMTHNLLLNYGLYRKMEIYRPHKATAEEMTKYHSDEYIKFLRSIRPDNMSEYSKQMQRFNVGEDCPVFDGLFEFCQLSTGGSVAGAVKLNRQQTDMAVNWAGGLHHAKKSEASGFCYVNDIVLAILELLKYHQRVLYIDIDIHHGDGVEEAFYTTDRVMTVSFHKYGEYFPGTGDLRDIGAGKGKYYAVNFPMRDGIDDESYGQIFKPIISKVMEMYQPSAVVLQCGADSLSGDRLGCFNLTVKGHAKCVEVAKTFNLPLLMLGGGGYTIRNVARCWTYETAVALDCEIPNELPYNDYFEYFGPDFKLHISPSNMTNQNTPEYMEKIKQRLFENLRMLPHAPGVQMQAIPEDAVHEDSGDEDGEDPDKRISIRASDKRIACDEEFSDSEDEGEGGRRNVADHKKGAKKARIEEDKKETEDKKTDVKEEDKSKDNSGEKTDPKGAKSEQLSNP
Nature of the experiment: Western blot of sciatic nerve lysates after sciatic nerve crush lesion. The format is in vivo. The following applies: 10 mg/kg/day i.p. from 9 to 13 dpl, 14 and/or 30 dpl, vs vehicle. As to the method:
Adult mice were treated with intraperitoneal injection of 10 mg/kg/day theophylline or its vehicle from 9 to 13 days post sciatic nerve crush lesion. At 14 days post lesion (dpl) the injured sciatic nerve (“crush”) was collected, as well as the same region of the contralateral nerve (“contra”) as internal control for each animal. After perineurium removal, sciatic nerves were frozen in liquid nitrogen, pulverized with a chilled mortar and pestle, lysed in RIPA buffer for 15 min on ice, and centrifuged to pellet debris. Supernatants were collected, and protein concentration was determined by Lowry Protein assay (Bio-Rad Laboratories). Sciatic nerves were submitted to SDS-PAGE and analysed by Western blot. Primary antibodies: HDAC2 (mouse, 1:1000, Sigma, cat. # H2663), Sox10 (rabbit, 1:250, DCS Innovative Diagnostik-Systeme, cat. # SI058C01), GAPDH (glyceraldehyde-3-phosphate-dehydrogenase, mouse, 1:5000, Genetex, cat. # GTX28245), P0 (chicken, 1:1000, Ayes Labs, cat. # PZO), Krox20 (rabbit, 1:500, Axxora, cat. # CO-PRB-236P-100). All secondary antibodies were from Jackson ImmunoResearch: light chain-specific goat anti-mouse-HRP (horse radish peroxidase) and goat anti-rabbit-HRP, and heavy chain-specific goat anti-chicken-HRP.
Background: In western blotting, separated proteins are transferred to a membrane and probed.

The test system of experiment [5] is HDAC2. The experiment can be described thus: Western blot of P4 sciatic nerve lysates of control and HDAC1/2 dKO mice. The conditions noted are these: control mice, 10 mg/kg s.c. once a day for 3 days from P1, nerves at P4. The format is in vivo, mouse. As for the experimental part:
In P1 control and dKO mice (as described in Example 2), 10 mg/kg theophylline or its vehicle were injected subcutaneously once a day for 3 days. Sciatic nerves were collected at P4. After perineurium removal, sciatic nerves were frozen in liquid nitrogen, pulverized with a chilled mortar and pestle, lysed in RIPA buffer for 15 min on ice, and centrifuged to pellet debris. Supernatants were collected, submitted to SDS-PAGE and analysed by Western blot. Primary antibodies: HDAC2 (mouse, 1:1000, Sigma, cat. # H2663), Sox10 (rabbit, 1:250, DCS Innovative Diagnostik-Systeme, cat. # SI058C01), GAPDH (glyceraldehyde-3-phosphate-dehydrogenase, mouse, 1:5000, Genetex, cat. # GTX28245), P0 (chicken, 1:1000, Ayes Labs, cat. # PZO). Secondary antibodies were from Jackson ImmunoResearch: light chain-specific goat anti-mouse-HRP (horse radish peroxidase) and goat anti-rabbit-HRP, and heavy chain-specific goat anti-chicken-HRP.

The next experiment has as its system crushed sciatic nerves. Nature of the experiment: Electron microscopy of crushed sciatic nerves, myelin thickness (g-ratio). The format is in vivo, mouse. The conditions noted are these: 10 mg/kg/day i.p. from 9 to 13 dpl, vs vehicle; for myelin sheath thickness: 10 mg/kg/day. As to the method:
Adult mice were treated with theophylline or vehicle as described above in Example 4 from 9 to 13 days post sciatic nerve crush lesion. Injured sciatic nerves were collected for morphological analysis by electron microscopy. Briefly, mice were killed with 150 mg/kg pentobarbital i.p. (Esconarkon; Streuli Pharma AG) and sciatic nerves were fixed in situ with 3% paraformaldehyde and 0.15% glutaraldehyde in 0.1 M phosphate buffer, pH 7.4. Fixed tissues were post-fixed in 2% osmium tetroxide, dehydrated through a graded acetone series as described previously (ref. 7), and embedded in Spurr's resin (Electron Microscopy Sciences). Ultrathin cross-sections (90-nm thick) were made, as described (ref. 7). All analyses were done at 5 mm distal to the lesion site. No contrasting reagent was applied. Images were acquired using a Philips CM 100 BIOTWIN equipped with a Morada side-mounted digital camera (Olympus). The g-ratio of at least 50 axons was measured per animal and 3 animals per group (theophylline or vehicle) were used at 14 dpl. At 30 dpl, only 2 animals were used (more animals will be added at 30 days post lesion for statistical analyses).

Experiment [6] relates to mice after sciatic nerve crush lesion. The experiment can be described thus: Rotarod after sciatic nerve crush lesion. The format is in vivo, mouse. The following applies: 15 rpm, 10 mg/kg/day i.p. from 9 to 13 dpl, vs vehicle. As to the method:
(§1) Adult mice were treated with theophylline or vehicle as described above in Example 4 from 9 to 13 days post sciatic nerve crush lesion (carried out as described above in Example 1). Mice were placed three times on the Rotarod apparatus at a fixed speed of 15 rpm to test balance and motor coordination, at 14 and 30 dpl. The duration of each trial was limited to 600 s, and trials were separated by a 30 min recovery period. Latency to fall from the rotating beam was recorded and the average of the three trials was used for quantification. Recovery of sensory function was tested at 14 and 30 dpl by toe pinch test: each toe of the rear foot on the right side (lesioned side) was pinched with equal pressure applied by the same experimenter using flat tip forceps. Immediate withdrawal was recorded as functional sensitivity of the pinched toe. […] All mice were between 3 and 4 months old. The experimenter was blinded regarding the treatment that mice received.
For orientation: Falling from the rotarod earlier than controls is read as motor impairment.

Experiment [7] shares this test system. The experiment can be described thus: Toe pinch test after sciatic nerve crush lesion. It is filed as in vivo, mouse. The following applies: 10 mg/kg/day i.p. from 9 to 13 dpl, vs vehicle. As for the experimental part:
as §1

In experiment [8] the target is T1, HDAC2. The experiment can be described thus: Immunofluorescence of lysolecithin lesion site in dorsal funiculus of spinal cord. The format is in vivo. The conditions noted are these: 14 dpl, treated 9 to 13 days post lysolecithin lesion, vs vehicle. As for the experimental part:
A focal demyelinating lesion was induced in the dorsal funiculus of the spinal cord of adult mice by injection of lysolecithin (1 μl at 1%), as described (ref. 9). This demyelination model is used as a model of multiple sclerosis lesion and is well characterized, the kinetics of demyelination and remyelination being well known. Mice were treated as described above in Example 4 with theophylline or vehicle for 4 days from 9 to 13 days post lysolecithin lesion, when OLP start to re-differentiate to remyelinate demyelinated axons. Mice were killed with 150 mg/kg pentobarbital i.p. (Esconarkon; Streuli Pharma AG) and perfused with 4% PFA. Spinal cords were collected, post-fixed for 2 h in 4% PFA, incubated in 30% sucrose overnight at 4° C., embedded in OCT compound and stored at −80° C. Spinal cords were then processed as sciatic nerves for immunofluorescence, as described in Example 2. Primary antibodies: HDAC2 (rabbit, 1:200, Santa Cruz Biotechnology, cat. # sc-7899), CC1 (mouse, 1:200, Calbiochem/Millipore, cat. # OP80), MBP (rat, 1:500, Serotec, cat. # MCA409S), Sox10 (rabbit, 1:250, DCS Innovative Diagnostik-Systeme, cat. # SI058C01).

In experiment [9] the test system is lysolecithin demyelinating lesion of the spinal cord. Nature of the experiment: Electron microscopy of spinal cord after lysolecithin lesion (remyelination). The format is in vivo, mouse. The conditions noted are these: 14 and 30 dpl, treated 9 to 13 days post lysolecithin lesion, vs vehicle. As for the experimental part:
For electron microscopy analyses, adult mice were submitted to a lysolecithin lesion and treated with theophylline or vehicle, as described above in Example 8. Mice were killed at 14 dpl or 30 dpl with 150 mg/kg pentobarbital i.p. (Esconarkon; Streuli Pharma AG) and perfused with 3% PFA and 0.15% glutaraldehyde in 0.1 M phosphate buffer, pH 7.4. Spinal cords were collected and processed as described above in Example 6.

The test system of another experiment is multiple sclerosis. Nature of the experiment: Contemplative combination treatment of MS patients. The format is in vivo, human. As for the experimental part: In this contemplative example, a group of female and male patients suffering from MS receiving theophylline [250 mg/day] during 1 month in addition to the standard treatment of interferon-β1a.
Where [10] appears, read: 0.6 μM for 3 days in de-differentiation medium.

Turning to `Nc1ccccc1NC(=O)c1ccc(CNc2nccc(-c3cccnc3)n2)cc1` [Mocetinostat], the “abundance of eEF1A1 peptides after immunoprecipitation with anti-acetyl-lysine antibody” value with HDAC1/2 [1] was “increased abundance”. In the experiment on HDAC1/2 [2] (setting [10]), the “Sox10 expression in the nuclear compartment” value was “strong decrease” and the Sox10 localization entry is recorded as “partially re-localized from the nuclear to the cytoplasmic compartment”. The “acetylated eEF1A1 levels” value in the experiment with HDAC1/2 [2] (0.6 μM for 3 days in de-differentiation medium, vs vehicle, predominantly nuclear) is reported as “strong increase”. Further, the “interaction (co-immunoprecipitation) of acetylated eEF1A with Sox10” value in the experiment on HDAC1/2 [2] (0.6 μM for 3 days, nuclear and cytoplasmic fractions) is listed as “potentiated”. In the experiment with HDAC1/2 [3], the “acetylated eEF1A in mature oligodendrocytes (CC1+)” value is reported as “robust increase; also recorded: accumulation of Ace-eEF1A in the nuclei of oligodendrocytes”.
`Cn1c(=O)c2[nH]cnc2n(C)c1=O` [theophylline]: at HDAC2 [4], the HDAC2 expression levels entry is on record as “increased levels”, the Krox20 levels entry is listed as “high increase; also recorded: increased levels”, the “P0 (myelin protein zero) levels” value is recorded as “high increase; also recorded: increased levels” and the Sox10 levels entry is given as “high increase; also recorded: increased levels”. Also, in the experiment with HDAC2 [5], the HDAC2 levels result is “increases; also recorded: increased levels”, the P0 levels result is “increases; also recorded: increased levels” and the Sox10 levels result is “increases; also recorded: increased levels”. Besides, the “g-ratio (axon diameter : [axon+myelin] diameter)” value in the experiment on crushed sciatic nerves (5 mm distal to lesion site) is “significantly lower”. In addition, the myelin sheath thickness result with crushed sciatic nerves (14 dpl) is listed as “thicker myelin sheath”. Besides, in the experiment with crushed sciatic nerves (30 dpl (only 2 animals)), the myelin sheath thickness entry is listed as “presumably also at 30 dpl; also recorded: thicker”. Also, the “performance on the Rotarod (motor function and coordination)” value in [6] (14 dpl) is “higher performances”. Moreover, the “performance on the Rotarod (motor function and coordination)” value in [6] (30 dpl) is reported as “perform as well as theophylline-treated mice”. For the same compound, the “toe pinch test, recovery of sensory function” value in experiment [7] (14 dpl) is “recovered the sensitivity of more toes”. In experiment [7] (30 dpl), the “toe pinch test, recovery of sensory function” value is listed as “vehicle-treated mice had not yet recovered their sensory function as well as theophylline-treated mice”. Also, at HDAC2 [8], the “HDAC2 expression in the lesion site of the spinal cord, including differentiated oligodendrocytes (CC1-positive)” value was “strongly increases; also recorded: higher amounts of HDAC2”; the “Sox10 levels in the lesion site” value is recorded as “increases; also recorded: higher levels of Sox10”; the “myelin basic protein (MBP) levels in the lesion site” value is reported as “increases; also recorded: higher myelin content”. Moreover, in experiment [9], the “remyelination of the lesioned spinal cord” value is given as “strongly enhanced”. Besides, in the experiment on multiple sclerosis (250 mg/day during 1 month in addition to standard interferon-β1a), the disease progression entry is recorded as “in some cases complete stop of disease progression”. Further, the “remission following an attack (exacerbation)” value in the experiment with multiple sclerosis (250 mg/day during 1 month in addition to standard interferon-β1a, vs standard treatment only) is reported as “significantly faster remission”. For the same compound, the life quality entry in the experiment on multiple sclerosis (combination therapy with interferon-β1a) is on record as “substantially increased life quality”.
